Data published in the supplement of paper PMC8960247.
Structures can show the parent of a compound that is named as a salt. ± gives the standard error.

Experiments:
[1] = system: 621-102 (TSC2-deficient); assay: relative viability vs DMSO; higher = less cytotoxic; conditions: serum: 10% FBS, 72 h
[2] = system: 621-103 (TSC2-rescued); assay: as above; conditions: serum: 10% FBS, 72 h
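Further: immortalized renal angiomyolipoma cells stably carrying empty vector or TSC2, dosed in 384-well plates in DMEM, viability normalized to vehicle-treated wells within each plate.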

Structure (SMILES)	relative viability ([1]; 0.0001 µM) [%]	relative viability ([1]; 0.001 µM) [%]	relative viability ([1]; 0.01 µM) [%]	relative viability ([1]; 0.1 µM) [%]	relative viability ([1]; 1 µM) [%]	relative viability ([1]; 10 µM) [%]	relative viability ([2]; 0.0001 µM) [%]	relative viability ([2]; 0.001 µM) [%]	relative viability ([2]; 0.01 µM) [%]	relative viability ([2]; 0.1 µM) [%]	relative viability ([2]; 1 µM) [%]	relative viability ([2]; 10 µM) [%]
CCOc1nc2cccc(C(=O)OC(C)OC(=O)OC3CCCCC3)c2n1Cc1ccc(-c2ccccc2-c2nn[nH]n2)cc1 (stereo unspecified) [Candesartan cilexetil]	106.1 ± 0.3	97.7 ± 2.1	102 ± 2.7	106 ± 1.2	96.9 ± 2.4	97.55 ± 0.87	96.526 ± 0.053	95.8 ± 3.5	94.03 ± 0.16	97.8 ± 1.6	99.8 ± 5.4	94.55 ± 0.33
CCCCCOC(=O)Nc1nc(=O)n([C@@H]2O[C@H](C)[C@@H](O)[C@H]2O)cc1F [Capecitabine (Xeloda)]	108.6 ± 0.75	112.3 ± 1.1	110 ± 2.9	106 ± 1.7	110.4 ± 0.14	100.35 ± 0.077	103 ± 1.9	99.6 ± 1.4	101.3 ± 0.12	99.27 ± 0.86	99.79 ± 0.64	100 ± 1.3
NC(=O)N1c2ccccc2C=Cc2ccccc21 [Carbamazepine (Carbatrol)]	93.1 ± 3.9	96.7 ± 3.8	93.3 ± 3	101.1 ± 0.14	108.4 ± 0.97	94.54 ± 0.19	101.9 ± 0.54	105.8 ± 0.3	103 ± 1.8	107.7 ± 0.39	105 ± 0.35	98.871 ± 0.053
C[C@@](Cc1ccc(O)c(O)c1)(NN)C(=O)O [Carbidopa]	97.3 ± 3.2	104 ± 5.4	90.03 ± 0.71	103 ± 1.6	99.6 ± 2.6	89.7 ± 1.3	92 ± 1.9	103.2 ± 0.12	93.7 ± 2.5	107 ± 2.1	104 ± 4.8	92.1 ± 1.4
COc1cc2c(Oc3ccc4[nH]c(C)cc4c3F)ncnc2cc1OCCCN1CCCC1 [Cediranib (AZD2171)]	104 ± 3.6	117 ± 2.7	121 ± 5.1	102 ± 2.1	84.2 ± 1.6	10.6 ± 4.9	81.9 ± 2.5	89.4 ± 1.5	102 ± 1.9	97.36 ± 0.37	62.3 ± 2.6	1.75 ± 0.065
CO/N=C(\C(=O)N[C@@H]1C(=O)N2C(C(=O)O)=C(CSC(=O)c3ccco3)CS[C@H]12)c1csc(N)n1 [Ceftiofur HCl]	116 ± 6.8	112.1 ± 0.33	123 ± 2	117 ± 5.6	116 ± 2	110 ± 1.9	98.6 ± 4.3	99.23 ± 0.84	94.4 ± 3	97.5 ± 5.2	94.3 ± 1.6	94.2 ± 3.3
CN(C)CCCN1c2ccccc2Sc2ccc(Cl)cc21 [Chlorpromazine HCl]	88.27 ± 0.79	87.9 ± 6.9	93.3 ± 8.6	101 ± 8.9	101 ± 7.6	81.9 ± 3.2	97.7 ± 3.2	92.6 ± 5.6	95.67 ± 0.89	102 ± 6.1	91.8 ± 4.6	63.7 ± 4.6
CN(C)CC/C=C1/c2ccccc2Sc2ccc(Cl)cc21 [Chlorprothixene]	93.1 ± 1.6	102 ± 5.2	102 ± 4.3	102.9 ± 0.47	108 ± 4	100.8 ± 0.6	103 ± 2.4	106 ± 5.4	102.3 ± 0.14	108 ± 2.9	108.9 ± 0.97	89.1 ± 2
COCCOC(=O)C1=C(C)NC(C)=C(C(=O)OC/C=C/c2ccccc2)C1c1cccc([N+](=O)[O-])c1 (stereo unspecified) [Cilnidipine]	118 ± 4	100.5 ± 0.18	102.6 ± 0.79	95.6 ± 1.2	99.98 ± 0.81	98 ± 2.2	98.6 ± 2.3	104 ± 3.4	105.9 ± 0.78	113 ± 2.5	100 ± 1.8	104 ± 3.1
O=C1CCc2cc(OCCCCc3nnnn3C3CCCCC3)ccc2N1 [Cilostazol]	109 ± 1.2	102 ± 0.67	107.6 ± 0.99	109 ± 3	96.51 ± 0.85	101 ± 2.5	107.6 ± 0.22	100.9 ± 0.71	108 ± 1.6	104.6 ± 1	101 ± 3.3	97.51 ± 0.021
CC(C)(Oc1ccc(C2CC2(Cl)Cl)cc1)C(=O)O (stereo unspecified) [Ciprofibrate]	105.1 ± 0.47	100 ± 4.4	103.6 ± 0.33	93.48 ± 0.86	97 ± 5.4	102 ± 1.7	107 ± 2.5	102 ± 3.9	98.7 ± 5	109.4 ± 0.22	103.1 ± 0.95	102 ± 1.3
Nc1nc(Cl)nc2c1ncn2[C@H]1C[C@H](O)[C@@H](CO)O1 [Cladribine]	106.2 ± 0.9	110 ± 1.8	113 ± 2.1	106.4 ± 0.98	97.8 ± 3.5	52.73 ± 0.19	101 ± 1.4	101 ± 2.1	105 ± 2.1	105 ± 2.4	60.3 ± 0.92	43.5 ± 0.46
CC[C@H]1OC(=O)[C@H](C)[C@@H](O[C@H]2C[C@@](C)(OC)[C@@H](O)[C@H](C)O2)[C@H](C)[C@@H](O[C@@H]2O[C@H](C)C[C@H](N(C)C)[C@H]2O)[C@](C)(OC)C[C@@H](C)C(=O)[C@H](C)[C@@H](O)[C@]1(C)O [Clarithromycin (Biaxin,Klacid)]	118 ± 2	113 ± 2.8	108 ± 0.65	115 ± 2.5	105 ± 0.45	98.8 ± 1.5	106 ± 2	91.4 ± 2.9	104 ± 1.4	102 ± 1.1	102 ± 3.7	93.43 ± 0.4
CCC(C)(Oc1ccc(C2(c3ccc(OC(C)(CC)C(=O)O)cc3)CCCCC2)cc1)C(=O)O (stereo unspecified) [Clinofibrate]	99.8 ± 0.13	107 ± 1.1	99.1 ± 2.4	99.1 ± 1.4	94.4 ± 4.2	107 ± 2.1	102.4 ± 0.13	93 ± 7.7	94.9 ± 0.43	105 ± 1.8	105 ± 3.6	91.3 ± 2.9
CCN(CC)CCOc1ccc(C(=C(Cl)c2ccccc2)c2ccccc2)cc1 [Clomifene citrate (Serophene)]	108 ± 1.1	105 ± 6	104 ± 3.9	102 ± 2.1	105 ± 1.7	58.6 ± 10	102 ± 3.5	99.3 ± 1.9	97.2 ± 5.9	96.14 ± 0.13	101 ± 4.7	14 ± 0.71
CN(C)CCCN1c2ccccc2CCc2ccc(Cl)cc21 [Clomipramine HCl]	114 ± 2.6	109 ± 1.4	111 ± 2.2	111 ± 4	109.6 ± 0.49	85.7 ± 0.93	100 ± 4.4	102 ± 1.1	102 ± 3.2	108 ± 3	93.4 ± 5.5	75.7 ± 1.8
Clc1cccc(Cl)c1NC1=NCCN1 [Clonidine HCl (Catapres)]	111 ± 5	110 ± 5.9	101 ± 1.1	104 ± 3.7	102.3 ± 0.16	104 ± 1.4	96.4 ± 1.4	92.5 ± 0.96	93.1 ± 9.7	110 ± 0.19	113 ± 5.1	108 ± 1.1
COC(=O)[C@H](c1ccccc1Cl)N1CCc2sccc2C1 [Clopidogrel Bisulfate]	105 ± 1.4	102 ± 1.4	108.3 ± 0.95	105 ± 1.4	105 ± 4	99.8 ± 5.3	109.1 ± 0.85	108 ± 4.5	111 ± 4.1	103 ± 2	104.86 ± 0.079	102.2 ± 0.55
